From patent US7271278B2, “Application of chromium-amino acid complexes in the treatment of diabetes and other diseases” (The University of Wyoming, priority 2005, dated 2007)

Tests used:
[1] = Body and organ weight of ob/ob(+/+) mice after 6-week treatment; assay type: in vivo, mouse
Description: (§1) All animal treatment procedures described in this example were approved by the animal Care and Use Committee at University of Wyoming (Laramie, Wyo.). Homozygous B6.V-lep ob>/J male mice purchased from the Jackson Laboratory (Bar Harbor, Me.) at age 5 weeks were divided randomly into two weight-matched groups, marked as ob/ob(+/+) control and ob/ob(+/+) treatment (n=10). Number, age and weight matched normal C57 mice were used as lean control. All of these animals were maintained on conventional laboratory diet under well-controlled conditions of temperature (22±2° C.), humidity (55±5%) and 12 hour/12 hour light-dark cycle and had ad libitum access to water and standard rodent chow. Rodent diet and tap water were consumed by mice ad libitum. Cr(pa)3 was provided in the drinking water and, on the basis of water intake, was administered to provide an intake of about 150 μg/kg/day corresponding to about 10-15 μg elemental Cr/kg/day for ob/ob(+/+) and lean treatment groups. The dosage of chromium used was based on earlier animal studies reported with chromium picolinate (Cefalu et al. (2002) J. Nutr., 132:1107-1114).
All animal treatment procedures described in this study were approved by the Animal Care and Use Committee at University of Wyoming (Laramie, Wyo.). […] Weights of body and other organs were measured with a standard laboratory scale.

[2] = In vitro lipid-peroxidation of rat brain homogenate stimulated by hydrogen peroxide and ascorbate; assay type: biochemical; details: rat-brain homogenate 10% w/v, hydrogen peroxide 1 mM, ascorbate 1 mM, 30 min; concentration-dependent
Procedure: The end product of lipid-peroxidation, namely malondialdehyde (MDA), was estimated in the liver tissue homogenates by the colorimetric kit (Bioxytech LPO-586, Portland, Oreg.) using 1,1,3,3-tetra-ethoxypropane as a standard according to the manufacturer's specifications. This assay is based on the reaction of a chromogenic reagent N-methyl-2-phenylindole with MDA at 45° C. which yields a stable chromophore with absorbance maxima at 586 nm. Ability of Cr(D-Phe)3 to inhibit in vitro lipid-peroxidation was assessed in rat-brain homogenates (10% w/v) by incubating Cr(D-Phe)3 in the presence of hydrogen peroxide (1 mM) and ascorbic acid (1 mM) for 30 min at 37° C. followed by measuring MDA as described previously (Sreejayan et al. (1994) J. Pharm. Pharmacol., 46:1013-1016).

[3] = test system: Akt; experiment: Insulin-stimulated Akt (thr308) phosphorylation, Western blot of 3T3-adipocyte lysates; assay type: cell-based, mouse
Procedure: (§2) The 3T3-L1-pre-adipocytes were obtained from the American Type Culture Collection and were propagated at 37° C. in DMEM with 10% newborn calf serum plus 50 U/ml penicillin and 50 μg/ml streptomycin in an incubator under a humidified atmosphere of 5% CO2/95% air. Induction of differentiation was done one day post-confluence. Cells were maintained in differentiation medium of the following composition: DMEM, 10% FBS, […] dexamethasone, 0.5 mM 1-isobutyl-3-methylxanthine (IBMX) and ITS for three days. At day 3, the dexamethasone and IBMX were removed with ITS remaining on the cells for an additional two days. Differentiation was allowed to continue in DMEM supplemented with 10% FBS, ITS and the adipocytes were used between day 9 and 14 post-induction. Prior to the cellular assays, cells were serum starved by overnight incubation in DMEM (containing 0.2% serum).
(§3) Cells were lysed in RIPA buffer (150 mM NaCl, 0.25% sodium desoxycholate, 1% NP-40, 1 mM EDTA and 50 mM Tris, pH 7.2) containing 2 mM sodium vanadate, 1 μM PMSF, 1 μM sodium fluoride, 1 μg/ml aprotinin, 1 μg/ml leupeptin, and 1 μM pepstatin and sonicated to reduce the sample viscosity. The lysate was centrifuged at 15000×g for 15 minutes at 4° C. and the protein concentration in the supernatant was determined by the bicinchoninic acid method. Equivalent amounts of proteins were boiled in Laemmli sample buffer. Proteins 10-20 μg were separated on 7.5-10% polyacrylamide gel, and electrophoretically transferred to a nitrocellulose membrane. The membranes were incubated for 1 hour at room temperature in blocking buffer (5% w/v non-fat dry milk in tris buffered saline containing 0.1% Tween 20). Membranes were incubated in appropriate phospho-specific primary antibody for insulin receptor beta or Akt at 1:2500 dilutions in the blocking buffer followed by incubation with horseradish peroxidase-coupled secondary antibodies with appropriate specificity. Immunoreactive bands were visualized using enhanced chemiluminescence reagents (Cell Signaling Technology, Inc, Beverly, Mass.). Blots were then stripped and re-probed with antibodies directed against insulin receptor β and Akt.

[4] = test system: insulin receptor beta; experiment: Insulin-stimulated IRβ tyrosine phosphorylation, Western blot of 3T3-adipocyte lysates; assay type: cell-based, mouse
Procedure: as §2
as §3, with “Blots were then stripped and re-probed with antibodies directed against insulin receptor β and Akt.” left out

[5] = test system: ob/ob(+/+) mice; experiment: Intraperitoneal glucose tolerance test (IPGTT) in ob/ob(+/+) and lean mice; assay type: in vivo, mouse
Description: as §1
At the end of the treatment schedule, mice were subjected to the intraperitoneal glucose tolerance test (IPGTT) as described previously (Hintz et al. (2003) Int. J. Obes. Relat. Metab. Disord., 27:1196-1203). Briefly, the mice were fasted for 12 hours and then given intraperitoneal injection of glucose (2 g/kg body weight). Glucose levels were determined in blood drops obtained by clipping the tail of the mice immediately before glucose challenge, as well as at 15, 60 and 120 minutes thereafter. Serum glucose levels were determined using ACCU-CHEK® Advantage® Glucose Analyzer (Roche Diagnostics Corporation, Ind.). Results of IPGTT are also expressed as integrated areas under the curves (AUC) over 120 minutes for glucose calculated by using the WinNonlin software (Pharsight Corporation, Mountain View, Calif.).

[6] = test system: 3T3-adipocytes; experiment: 2-deoxy-D-[3H] glucose uptake in 3T3-L1 adipocytes; assay type: cell-based, mouse
Procedure: as §2
Glucose uptake activity was analyzed by measuring the uptake of 2-deoxy-D-[^3H] glucose as described previously (Sakoda et al. (1999) Diabetes, 48:1365-1371). Briefly, confluent 3T3-L1 adipocytes grown in 6-well plates were washed twice with serum-free DMEM and incubated with 2 ml of the same medium at 37° C. for 2 hours. The cells were washed 3 times with Krebs-Ringer-HEPES (KRH) buffer and incubated with 2 ml KRH buffer at 37° C. for 30 minutes. Insulin (6 nM) and/or Cr(pa)3 (0-25 μM) were then added to adipocytes accompanying the procedure of differentiation. Glucose uptake was initiated by the addition of 0.1 ml KRH buffer and 2-deoxy-D-[^3H] glucose (0.2 μCi/ml) and 5 mM glucose as final concentrations. Glucose uptake was terminated by washing the cells three times with cold PBS. The cells were lysed overnight with 1 ml 0.5M NaOH and 0.1% SDS (w/v). The radioactivity retained by the cell lysates was determined by a scintillation counter (Beckmann LC 6000IC) and normalized to protein amount measured with a Micro BCA Protein Assay Kit (Pierce Chemical, Rockford, Ill.).

[7] = test system: ob/ob(+/+) mice; experiment: Insulin-challenge test in ob/ob(+/+) and lean mice; assay type: in vivo, mouse; details: vs vehicle-treated group
Description: All animal treatment procedures described in this study were approved by the Animal Care and Use Committee at University of Wyoming (Laramie, Wyo.). Homozygous B6.Vlep/J male mice purchased from the Jackson Laboratory (Bar Harbor, Me.) at age 5 weeks were divided randomly into two weight-matched groups, marked as ob/ob(+/+) control and ob/ob(+/+) treatment (n=12). Number and age-matched normal C57 mice were used as lean control. All animals were maintained on conventional laboratory diet under well-controlled conditions of temperature (22±2° C.), humidity (55±5%) and 12 hours/12 hours light-dark cycle and had ad libitum access to water and standard rodent chow. Cr(D-Phe)3 was provided in the drinking water and, on the basis of water intake, was administered to provide an intake of about 150 μg/kg/day corresponding to about 10-15 μg elemental Cr/kg/day) for ob/ob(+/+) and lean treatment groups. […] The livers of these mice were frozen in liquid nitrogen immediately and stored at −80° C. until use. […] Weights of body and other organs were measured with a standard laboratory scale.
At the end of the treatment schedule, mice were given intraperitoneal injections of insulin (1 U/kg body weight). Blood glucose levels were determined by the tail-clip method at different time points as described hereinabove.

[8] = test system: ob/ob(+/+) mice; experiment: Plasma/serum lipids (total cholesterol, HDL) in obese mice; assay type: in vivo, mouse
Procedure: Specifically, mice were treated with Cr(pa)3 at 150 μg/kg/day for six weeks. Cholesterol levels were determined by using a kit from Equal Diagnostics (Exton, Pa.) following the manufacturer's protocol.
(§4) All animal treatment procedures described in this study were approved by the Animal Care and Use Committee at University of Wyoming (Laramie, Wyo.). Homozygous B6.Vlep/J male mice purchased from the Jackson Laboratory (Bar Harbor, Me.) at age 5 weeks were divided randomly into two weight-matched groups, marked as ob/ob(+/+) control and ob/ob(+/+) treatment (n=12). Number and age-matched normal C57 mice were used as lean control. All animals were maintained on conventional laboratory diet under well-controlled conditions of temperature (22±2° C.), humidity (55±5%) and 12 hours/12 hours light-dark cycle and had ad libitum access to water and standard rodent chow. Cr(D-Phe)3 was provided in the drinking water and, on the basis of water intake, was administered to provide an intake of about 150 μg/kg/day corresponding to about 10-15 μg elemental Cr/kg/day) for ob/ob(+/+) and lean treatment groups. […] The livers of these mice were frozen in liquid nitrogen immediately and stored at −80° C. until use. Blood was collected from the heart, and the serum was extracted by centrifuging the blood at 1000 g at 4° C. and stored at −80° C. Weights of body and other organs were measured with a standard laboratory scale.
Serum levels of total cholesterol, high-density-lipoprotein (HDL) and triglycerides were measured using commercial kits (from Equal Diagnostics, Exton, Pa.) and SpectraMax 340PC^384 Microplate Reader System (Molecular Device, Sunnyvale, Calif.).

[9] = test system: Akt; experiment: Hepatic Akt and insulin receptor phosphorylation, Western blot of liver homogenates; assay type: in vivo, mouse; details: obese mice
Description: as §4
Liver tissues lysates were subjected to Western blot analysis as described hereinabove using phospho specific antibodies against Akt. Blots were then stripped and re-probed with antibodies directed against antibodies directed at the total protein.

[10] = test system: pUC19 DNA; experiment: Ascorbate-stimulated cleavage of pUC19 DNA; details: 1.2 μM, ascorbic acid, pUC19 DNA 38 μM
Procedure: DNA cleavage-stimulated by chromium compounds was assessed as described previously (Speetjens et al. (1999) Chem. Res. Toxicol., 12:483-487). All solutions were prepared using Chelex-100 treated water to remove any traces of metal ions. […] Reactions were allowed to proceed 60 minutes at room temperature followed by quenching with 2 μl of nucleic acid sample loading buffer. The mixtures were loaded directly onto a 1% agarose gel pre-stained by ethidium bromide and electrophoresed at 60 V. The gels were photographed on a UV transilluminator.

[11] = Deoxyribose degradation assay for generation of hydroxyl radicals
Procedure: The potential of chromium compounds to generate hydroxyl radicals in vitro was assessed by the method reported previously (Halliwell et al. (1987) Anal. Biochem., 165:215-219). Briefly, a reaction mixture containing either chromium picolinate or Cr(pa)3, 2-deoxyribose (4 mM), ascorbic acid (100 μM) and hydrogen peroxide (100 μM) in potassium phosphate buffer (pH 7.4, 10 mM) was incubated at 37° C. for 30 minutes. An aliquot of the mixture was treated with 1% (w/v) thiobarbituric acid and 2.8% (w/v) trichloroacetic acid and heated at 90° C. for 10 minutes, rapidly cooled and the amount of chromogen formed in the sample was measured by its absorption at 532 nm. Ferric-EDTA (100 μM) was used as a positive control.

[12] = test system: ob/ob(+/+) mice; experiment: Lipid-peroxidation (malondialdehyde) and protein carbonyl in liver homogenate of treated mice; assay type: in vivo, mouse; details: obese mice, 150 μg/kg/day 6 weeks, vs untreated obese
Description: All animal treatment procedures described in this study were approved by the Animal Care and Use Committee at University of Wyoming (Laramie, Wyo.). Homozygous B6.Vlep/J male mice purchased from the Jackson Laboratory (Bar Harbor, Me.) at age 5 weeks were divided randomly into two weight-matched groups, marked as ob/ob(+/+) control and ob/ob(+/+) treatment (n=12). Number and age-matched normal C57 mice were used as lean control. All animals were maintained on conventional laboratory diet under well-controlled conditions of temperature (22±2° C.), humidity (55±5%) and 12 hours/12 hours light-dark cycle and had ad libitum access to water and standard rodent chow. […] Weights of body and other organs were measured with a standard laboratory scale.
The end product of lipid-peroxidation, namely malondialdehyde (MDA), was estimated in the liver tissue homogenates by the colorimetric kit (Bioxytech LPO-586, Portland, Oreg.) using 1,1,3,3-tetra-ethoxypropane as a standard according to the manufacturer's specifications. This assay is based on the reaction of a chromogenic reagent N-methyl-2-phenylindole with MDA at 45° C. which yields a stable chromophore with absorbance maxima at 586 nm. […]

N[C@H](Cc1ccccc1)C(=O)O.[Cr+3] [Cr(pa)3, chromium (III) D-phenylalanine]
difference in body weight ([1]; ob/ob(+/+) mice treated vs untreated): no significant difference
body-mass indices (body, heart, liver, kidney weights) ([1]; obese mice, 150 μg/kg/day six weeks): did not alter
in vitro lipid-peroxidation (malondialdehyde equivalents) [2]: inhibited
phosphorylation levels of Akt ([3]; Cr(pa)3 alone, absence of insulin): did not alter
stimulation of insulin-stimulated Akt phosphorylation compared to chromium picolinate ([3]; equimolar concentrations): greater stimulation
in vitro Akt phosphorylation among various chromium complexes ([3]; insulin 10 nM, vs Cr(Pic)3, Cr(AcAc)3, Cr(Sal)3, CrCl3): greatest amount
insulin-stimulated Akt (thr308) phosphorylation ([3]; pretreatment, insulin 10 nM, concentration- and time-dependent): further increase
protein levels of insulin receptor ([4]; 3T3-adipocytes): does not increase
IRβ phosphorylation induced by submaximal insulin ([4]; insulin 1 nM): not altered
insulin-stimulated IRβ tyrosine phosphorylation ([4]; pretreatment for various time or at different concentrations, insulin 10 nM 10 minutes): not altered
AUC of glucose, lean mice ([5]; lean mice, treated vs untreated): no significant changes
serum glucose levels post-glucose-challenge ([5]; ob/ob(+/+) mice, 150 μg/kg/d 6 weeks, 15 and 60 minutes, vs untreated): significantly lower
integrated AUC over 120 minutes of glucose ([5]; ob/ob(+/+) mice, 150 μg/kg/d 6 weeks, vs untreated): significantly lower
insulin-stimulated glucose uptake ([6]; Cr(pa)3 5 and 25 μM, insulin 6 nM, vs insulin-stimulated untreated cells): significantly augmented
basal glucose uptake ([6]; absence of insulin): did not have any effect
blood glucose level after insulin-challenge, lean mice [7]: failed to further lower the blood glucose level
serum HDL-cholesterol levels ([8]; 150 μg/kg/day 6 weeks): did not alter
total serum cholesterol levels ([8]; 150 μg/kg/day 6 weeks (Example 2)): significant lowering
plasma cholesterol levels ([8]; 150 μg/kg/day six weeks (Example 1)): significantly attenuated
levels of phospho-Akt in liver homogenate ([9]; oral 150 μg/kg/day 6 weeks, basal): failed to significantly enhance
levels of total Akt protein in liver homogenate ([9]; oral treatment): Neither did the treatment alter
phosphorylation of insulin-receptors in liver ([9]; same blots reprobed for phosphorylated insulin receptor beta): no changes
DNA strand breaks (supercoiled to circular nicked pUC19) [10]: failed to induce any strand breaks
degradation of deoxyribose ([11]; 1.2 μM): failed to cause any degradation of deoxyribose
malondialdehyde (lipid-peroxidation) in liver homogenate [12]: significantly lower
protein carbonyl formation in liver homogenate [12]: significantly lower

insulin
increase in glucose uptake by adipocytes ([6]; insulin 6 nM during differentiation): fourfold

O=C([O-])CN(CCN(CC(=O)[O-])CC(=O)O)CC(=O)[O-].[Fe+3] [Ferric-EDTA, reference compound]
hydroxyl radical production over control / reagent blank ([11]; chromium picolinate 1.2 μM, Ferric-EDTA 100 μM, ascorbic acid and hydrogen peroxide 100 μM): about 3.5 fold
